Where a name gives a salt, the structure may show the parent alone.
Target: T1, human TRPV4 (Homo sapiens, UniProt Q9HBA0)
T1 construct: expressed in transfected cells; host or cells: BHK/AC9 cells transduced with BacMam virus
Test: FLIPR assay for hTRPV4 expressed in BHK cells: inhibition of Agonist Compound-induced calcium signal
Format: cell-based
Details: hTRPV4 in BHK/AC9 cells, FLIPR calcium signal, agonist at EC80; reported as range class; read-out: IC50
Outline: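 Calcium influx through TRPV4 tracked by Fluo-4 fluorescence on FLIPR. Cells: BHK/AC9 transduced with BacMam-hTRPV4 at MOI 78, 24 h culture post-plating (15,000 cells/well). Dye loading: 2 μM Fluo-4 AM with 500 μM Brilliant Black quencher, 1-1.5 h, room temperature, dark.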

T1 sequence (Q9HBA0 whole entry): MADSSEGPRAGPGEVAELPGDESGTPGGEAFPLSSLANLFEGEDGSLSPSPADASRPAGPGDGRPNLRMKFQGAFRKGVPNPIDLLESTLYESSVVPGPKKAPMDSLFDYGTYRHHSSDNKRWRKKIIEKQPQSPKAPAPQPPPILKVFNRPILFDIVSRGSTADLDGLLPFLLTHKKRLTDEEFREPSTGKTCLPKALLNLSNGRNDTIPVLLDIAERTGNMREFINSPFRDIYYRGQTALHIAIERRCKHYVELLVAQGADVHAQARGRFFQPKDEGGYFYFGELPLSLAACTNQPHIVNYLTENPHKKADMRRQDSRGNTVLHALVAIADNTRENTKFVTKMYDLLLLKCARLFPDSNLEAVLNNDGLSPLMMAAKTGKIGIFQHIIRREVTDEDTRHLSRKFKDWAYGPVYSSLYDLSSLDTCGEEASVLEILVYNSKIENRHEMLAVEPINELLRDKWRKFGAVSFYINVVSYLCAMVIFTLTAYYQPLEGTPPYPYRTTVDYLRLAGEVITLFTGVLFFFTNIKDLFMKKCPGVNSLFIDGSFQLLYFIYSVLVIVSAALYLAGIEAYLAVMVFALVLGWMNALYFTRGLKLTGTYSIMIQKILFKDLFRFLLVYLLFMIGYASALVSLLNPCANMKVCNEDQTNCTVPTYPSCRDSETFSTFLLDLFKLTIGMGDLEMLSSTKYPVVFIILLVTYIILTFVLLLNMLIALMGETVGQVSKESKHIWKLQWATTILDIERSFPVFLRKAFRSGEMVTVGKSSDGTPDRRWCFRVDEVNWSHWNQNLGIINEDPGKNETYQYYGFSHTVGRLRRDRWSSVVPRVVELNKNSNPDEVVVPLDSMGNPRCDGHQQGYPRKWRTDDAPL

IC50 [µM]	SMILES
0.0001 to 0.01	N#Cc1ccc(O[C@H]2CN(S(=O)(=O)c3ccc(Cl)cc3C#N)C[C@]2(O)CN)cc1F [Example 235, 4-(((3S,4R)-4-(aminomethyl)-1-((4-chloro-2-cyanophenyl)sulfonyl)-4-hydroxypyrrolidin-3-yl)oxy)-2-fluorobenzonitrile, Hydrochloride]
0.0001 to 0.01	N#Cc1ccc(O[C@H]2CN(S(=O)(=O)c3ccc(Cl)cc3C#N)C[C@]2(O)CNCCO)cc1F [Example 236, 4-(((3S,4R)-1-((4-chloro-2-cyanophenyl)sulfonyl)-4-hydroxy-4-(((2-hydroxyethyl)amino)methyl)pyrrolidin-3-yl)oxy)-2-fluorobenzonitrile, 2,2,2-trifluoroacetate]
0.0001 to 0.01	CNC[C@]1(O)CN(S(=O)(=O)c2ccc(C(F)(F)F)cc2C#N)C[C@@H]1Oc1ccc(C#N)c(F)c1 [Example 237, 4-(((3S,4S)-1-((2-cyano-4-(trifluoromethyl)phenyl)sulfonyl)-4-hydroxy-4-((methylamino)methyl)pyrrolidin-3-yl)oxy)-2-fluorobenzonitrile, 2,2,2-trifluoroacetate]
0.0001 to 0.01	CCNC[C@]1(O)CN(S(=O)(=O)c2ccc(C(F)(F)F)cc2C#N)C[C@@H]1Oc1ccc(C#N)c(F)c1 [Example 238, 4-(((3S,4S)-1-((2-cyano-4-(trifluoromethyl)phenyl)sulfonyl)-4-((ethylamino)methyl)-4-hydroxypyrrolidin-3-yl)oxy)-2-fluorobenzonitrile, 2,2,2-trifluoroacetate]
0.0001 to 0.01	CC(C)NC[C@]1(O)CN(S(=O)(=O)c2ccc(C(F)(F)F)cc2C#N)C[C@@H]1Oc1ccc(C#N)c(F)c1 [Example 239, 4-(((3S,4S)-1-((2-cyano-4-(trifluoromethyl)phenyl)sulfonyl)-4-hydroxy-4-((isopropylamino)methyl)pyrrolidin-3-yl)oxy)-2-fluorobenzonitrile, 2,2,2-trifluoroacetate]
0.0001 to 0.01	N#Cc1ccc(O[C@H]2CN(S(=O)(=O)c3ccc(Cl)cc3C#N)C[C@@]2(O)CN)cc1F [Example 240, 4-(((3S,4S)-4-(aminomethyl)-1-((4-chloro-2-cyanophenyl)sulfonyl)-4-hydroxypyrrolidin-3-yl)oxy)-2-fluorobenzonitrile]
0.01 to 0.1	Cn1ncc(Cl)c1S(=O)(=O)N1C[C@H](Oc2ccc(C#N)c(F)c2)[C@](O)(CN)C1 [Example 241, 4-(((3S,4S)-4-(aminomethyl)-1-((4-chloro-1-methyl-1H-pyrazol-5-yl)sulfonyl)-4-hydroxpyrrolidin-3-yl)oxy)-2-fluorobenzonitrile, 2,2,2-trifluoroacetate]
0.01 to 0.1	N#Cc1ccc(O[C@H]2CN(S(=O)(=O)c3ccc(F)cn3)C[C@@]2(O)CN)cc1F [Example 242, 4-(((3S,4S)-4-(aminomethyl)-1-((5-fluoropyridin-2-yl)sulfonyl)-4-hydroxpyrrolidin-3-yl)oxy)-2-fluorobenzonitrile, 2,2,2-trifluoroacetate]
0.01 to 0.1	N#Cc1ccc(S(=O)(=O)N2C[C@H](Oc3ccc(C#N)c(F)c3)[C@](O)(CN)C2)cn1 [Example 243, 5-(((3S,4S)-3-(aminomethyl)-4-(4-cyano-3-fluorophenoxy)-3-hydroxpyrrolidin-1-yl)sulfonyl) picolinonitrile, 2,2,2-trifluoroacetate]
0.01 to 0.1	N#Cc1ccc(O[C@H]2CN(S(=O)(=O)c3ccc(C(F)F)cn3)C[C@@]2(O)CN)cc1F [Example 244, 4-(((3S,4S)-4-(aminomethyl)-1-((5-(difluoromethyl)pyridin-2-yl)sulfonyl)-4-hydroxpyrrolidin-3-yl)oxy)-2-fluorobenzonitrile]
0.01 to 0.1	N#Cc1ccc(O[C@H]2CN(S(=O)(=O)c3ccc(C(F)(F)F)nc3)C[C@@]2(O)CN)cc1F [Example 245, 4-(((3S,4S)-4-(aminomethyl)-4-hydroxy-1-((6-(trifluoromethyl)pyridin-3-yl)sulfonyl)pyrrolidin-3-yl)oxy)-2-fluorobenzonitrile, Hydrochloride]
0.01 to 0.1	N#Cc1ccc(O[C@H]2CN(S(=O)(=O)c3ccc(Cl)cn3)C[C@@]2(O)CN)cc1 [Example 246, 4-(((3S,4S)-4-(aminomethyl)-1-((5-chloropyridin-2-yl)sulfonyl)-4-hydroxpyrrolidin-3-yl)oxy)benzonitrile]
0.01 to 0.1	N#Cc1ccc(O[C@H]2CN(S(=O)(=O)c3ccc(OC(F)F)cn3)C[C@@]2(O)CN)cc1F [Example 247, 4-(((3S,4S)-4-(aminomethyl)-1-((5-(difluoromethoxy)pyridin-2-yl)sulfonyl)-4-hydroxypyrrolidin-3-yl)oxy)-2-fluorobenzonitrile, 2,2,2-trifluoroacetate]
0.01 to 0.1	N#Cc1ccc(O[C@H]2CN(S(=O)(=O)c3ccc(OC(F)(F)F)cn3)C[C@@]2(O)CN)cc1F [Example 248, 4-(((3S,4S)-4-(aminomethyl)-4-hydroxy-1-((5-(trifluoromethoxy)pyridin-2-yl)sulfonyl)pyrrolidin-3-yl)oxy)-2-fluorobenzonitrile]
0.01 to 0.1	N#Cc1ccc(O[C@H]2CN(S(=O)(=O)c3ccc(OC(F)(F)F)nc3)C[C@@]2(O)CN)cc1F [Example 249, 4-(((3S,4S)-4-(aminomethyl)-4-hydroxy-1-((6-(trifluoromethoxy)pyridin-3-yl)sulfonyl)pyrrolidin-3-yl)oxy)-2-fluorobenzonitrile, Hydrochloride]
0.0001 to 0.01	N#Cc1ccc(O[C@H]2CN(S(=O)(=O)c3ccc(I)cn3)C[C@@]2(O)CN)cc1F [Example 250, 4-(((3S,4S)-4-(aminomethyl)-4-hydroxy-1-((5-iodopyridin-2-yl)sulfonyl)pyrrolidin-3-yl)oxy)-2-fluorobenzonitrile, 2,2,2-trifluoroacetate]
0.0001 to 0.01	N#Cc1ccc(O[C@H]2CN(S(=O)(=O)c3ccc(Br)cn3)C[C@@]2(O)CN)cc1F [Example 251, 4-(((3S,4S)-4-(aminomethyl)-1-((5-bromopyridin-2-yl)sulfonyl)-4-hydroxpyrrolidin-3-yl)oxy)-2-fluorobenzonitrile, 2,2,2-trifluoroacetate]
0.0001 to 0.01	CN1CCO[C@]2(C1)CN(S(=O)(=O)c1ccc(Cl)cc1C#N)C[C@@H]2Oc1ccc(C#N)c(F)c1 [Example 252, 4-(((4S,5R)-2-((4-chloro-2-cyanophenyl)sulfonyl)-9-methyl-6-oxa-2,9-diazaspiro[4.5]decan-4-yl)oxy)-2-fluorobenzonitrile]
0.01 to 0.1	N#Cc1ccc(O[C@H]2CN(S(=O)(=O)c3ccc(Cl)cc3C#N)C[C@@]23CNC(=O)O3)cc1F [Example 254, 4-(((5S,9S)-7-((4-chloro-2-cyanophenyl)sulfonyl)-2-oxo-1-oxa-3,7-diazaspiro[4.4]nonan-9-yl)oxy)-2-fluorobenzonitrile]
0.0001 to 0.01	N#Cc1ccc(O[C@H]2CN(S(=O)(=O)c3ccc(Cl)cc3C#N)C[C@]23CNC(=O)O3)cc1F [Example 255, 4-(((5R,9S)-7-((4-chloro-2-cyanophenyl)sulfonyl)-2-oxo-1-oxa-3,7-diazaspiro[4.4]nonan-9-yl)oxy)-2-fluorobenzonitrile]
0.01 to 0.1	C[C@@H](N)[C@]1(O)CN(S(=O)(=O)c2ccc(Cl)cn2)C[C@@H]1Oc1ccc(C#N)c(F)c1 [Example 256, 4-(((3S,4R)-4-((R)-1-aminoethyl)-1-((5-chloropyridin-2-yl)sulfonyl)-4-hydroxypyrrolidin-3-yl)oxy)-2-fluorobenzonitrile, 2,2,2-trifluoroacetate]

— patent US11229623B2 (GlaxoSmithKline Intellectual Property (No.2) Limited, priority 2016, dated 2022)
